The first assay concerns EPLC-272H. As to the kind of experiment: relative viability (nuclei count vs DMSO), 5 days (fraction); higher = more cells survive. Particulars: first compound 2.53 µM. In a few lines: (§1)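 Relative viability was taken as the ratio of nuclei in treated wells to nuclei in vehicle wells. Lung cancer cell lines in 1536-well plates received compounds by pin tool one day after seeding, either one drug alone or a fixed anchor-drug dose plus five library-drug doses (not always all listed) in √10 steps. Nuclei were counted on 4× images after 5 days of treatment, and values are medians of duplicate plates.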
As for `CCCCCCCCCCCC1=C(O)C(=O)C=C(O)C1=O` [Embelin] + CS(=O)(=O)CCNCc1ccc(-c2ccc3ncnc(Nc4ccc(OCc5cccc(F)c5)c(Cl)c4)c3c2)o1 [Lapatinib] (partner 2 µM), the relative viability turned out to be 1.01.

The compound `CCCCCCCCCCCC1=C(O)C(=O)C=C(O)C1=O` [Embelin] + C[C@@H](Oc1cc(-c2cnn(C3CCNCC3)c2)cnc1N)c1c(Cl)ccc(F)c1Cl [Crizotinib] (partner 1 µM) displayed a relative viability of 1.4.

The assay is the same for the next values; noted with them: first compound 8 µM.
`CCCCCCCCCCCC1=C(O)C(=O)C=C(O)C1=O` [Embelin] + O=C(CCCCCCC(=O)Nc1ccccc1)NO [Vorinostat] (partner 1 µM): the relative viability was determined as 0.363.

The compound `CCCCCCCCCCCC1=C(O)C(=O)C=C(O)C1=O` [Embelin] + C[C@]1(O)C[C@@H](c2nc(-c3ccc4ccc(-c5ccccc5)nc4c3)c3c(N)nccn32)C1 [Linsitinib] (partner 1 µM) had a relative viability of 1.03.

Regarding `CCCCCCCCCCCC1=C(O)C(=O)C=C(O)C1=O` [Embelin] + CC(C)C[C@H](NC(=O)[C@H](Cc1ccccc1)NC(=O)c1cnccn1)B(O)O [Bortezomib] (partner 0.002 µM), the relative viability is 0.86.

For the compound `CCCCCCCCCCCC1=C(O)C(=O)C=C(O)C1=O` [Embelin] + CS(=O)(=O)CCNCc1ccc(-c2ccc3ncnc(Nc4ccc(OCc5cccc(F)c5)c(Cl)c4)c3c2)o1 [Lapatinib] (partner 2 µM), the relative viability is 0.816.

For the compound `CCCCCCCCCCCC1=C(O)C(=O)C=C(O)C1=O` [Embelin] + C[C@@H](Oc1cc(-c2cnn(C3CCNCC3)c2)cnc1N)c1c(Cl)ccc(F)c1Cl [Crizotinib] (partner 1 µM), the relative viability worked out at 0.765.

The test system of a further assay is HCC-78. The assay is described as above. Conditions: first compound 0.08 µM. An outline of the steps: as §1
`CCCCCCCCCCCC1=C(O)C(=O)C=C(O)C1=O` [Embelin] + O=C(CCCCCCC(=O)Nc1ccccc1)NO [Vorinostat] (partner 1 µM): the relative viability was 0.467.

For `CCCCCCCCCCCC1=C(O)C(=O)C=C(O)C1=O` [Embelin] + C[C@]1(O)C[C@@H](c2nc(-c3ccc4ccc(-c5ccccc5)nc4c3)c3c(N)nccn32)C1 [Linsitinib] (partner 1 µM), the relative viability came to 0.516.

`CCCCCCCCCCCC1=C(O)C(=O)C=C(O)C1=O` [Embelin] + CC(C)C[C@H](NC(=O)[C@H](Cc1ccccc1)NC(=O)c1cnccn1)B(O)O [Bortezomib] (partner 0.002 µM): the relative viability worked out at 0.605.

Take `CCCCCCCCCCCC1=C(O)C(=O)C=C(O)C1=O` [Embelin] + CS(=O)(=O)CCNCc1ccc(-c2ccc3ncnc(Nc4ccc(OCc5cccc(F)c5)c(Cl)c4)c3c2)o1 [Lapatinib] (partner 2 µM): the relative viability worked out at 0.767.

For the compound `CCCCCCCCCCCC1=C(O)C(=O)C=C(O)C1=O` [Embelin] + C[C@@H](Oc1cc(-c2cnn(C3CCNCC3)c2)cnc1N)c1c(Cl)ccc(F)c1Cl [Crizotinib] (partner 1 µM), the relative viability turned out to be 0.344.

Still in this assay, the particulars now being: first compound 0.8 µM.
The compound `CCCCCCCCCCCC1=C(O)C(=O)C=C(O)C1=O` [Embelin] + O=C(CCCCCCC(=O)Nc1ccccc1)NO [Vorinostat] (partner 1 µM) came in with a relative viability of 0.547.

`CCCCCCCCCCCC1=C(O)C(=O)C=C(O)C1=O` [Embelin] + C[C@]1(O)C[C@@H](c2nc(-c3ccc4ccc(-c5ccccc5)nc4c3)c3c(N)nccn32)C1 [Linsitinib] (partner 1 µM) registered a relative viability of 0.623.

`CCCCCCCCCCCC1=C(O)C(=O)C=C(O)C1=O` [Embelin] + CC(C)C[C@H](NC(=O)[C@H](Cc1ccccc1)NC(=O)c1cnccn1)B(O)O [Bortezomib] (partner 0.002 µM) showed a relative viability of 0.532.

`CCCCCCCCCCCC1=C(O)C(=O)C=C(O)C1=O` [Embelin] + CS(=O)(=O)CCNCc1ccc(-c2ccc3ncnc(Nc4ccc(OCc5cccc(F)c5)c(Cl)c4)c3c2)o1 [Lapatinib] (partner 2 µM): the relative viability turned out to be 0.703.

On to `CCCCCCCCCCCC1=C(O)C(=O)C=C(O)C1=O` [Embelin] + C[C@@H](Oc1cc(-c2cnn(C3CCNCC3)c2)cnc1N)c1c(Cl)ccc(F)c1Cl [Crizotinib] (partner 1 µM), for which the relative viability is 0.373.

The assay is the same for the next values; noted with them: first compound 2.53 µM.
For the compound `CCCCCCCCCCCC1=C(O)C(=O)C=C(O)C1=O` [Embelin] + O=C(CCCCCCC(=O)Nc1ccccc1)NO [Vorinostat] (partner 1 µM), the relative viability is 0.553.

`CCCCCCCCCCCC1=C(O)C(=O)C=C(O)C1=O` [Embelin] + C[C@]1(O)C[C@@H](c2nc(-c3ccc4ccc(-c5ccccc5)nc4c3)c3c(N)nccn32)C1 [Linsitinib] (partner 1 µM) yielded a relative viability of 0.52.

With `CCCCCCCCCCCC1=C(O)C(=O)C=C(O)C1=O` [Embelin] + CC(C)C[C@H](NC(=O)[C@H](Cc1ccccc1)NC(=O)c1cnccn1)B(O)O [Bortezomib] (partner 0.002 µM), the relative viability was determined as 0.555.

The compound `CCCCCCCCCCCC1=C(O)C(=O)C=C(O)C1=O` [Embelin] + CS(=O)(=O)CCNCc1ccc(-c2ccc3ncnc(Nc4ccc(OCc5cccc(F)c5)c(Cl)c4)c3c2)o1 [Lapatinib] (partner 2 µM) displayed a relative viability of 0.796.

Turning to `CCCCCCCCCCCC1=C(O)C(=O)C=C(O)C1=O` [Embelin] + C[C@@H](Oc1cc(-c2cnn(C3CCNCC3)c2)cnc1N)c1c(Cl)ccc(F)c1Cl [Crizotinib] (partner 1 µM), the relative viability worked out at 0.347.

The assay is the same for the next values; noted with them: first compound 8 µM.
Take `CCCCCCCCCCCC1=C(O)C(=O)C=C(O)C1=O` [Embelin] + O=C(CCCCCCC(=O)Nc1ccccc1)NO [Vorinostat] (partner 1 µM): the relative viability is 0.401.

Compound `CCCCCCCCCCCC1=C(O)C(=O)C=C(O)C1=O` [Embelin] + C[C@]1(O)C[C@@H](c2nc(-c3ccc4ccc(-c5ccccc5)nc4c3)c3c(N)nccn32)C1 [Linsitinib] (partner 1 µM) registered a relative viability of 0.413.

Take `CCCCCCCCCCCC1=C(O)C(=O)C=C(O)C1=O` [Embelin] + CC(C)C[C@H](NC(=O)[C@H](Cc1ccccc1)NC(=O)c1cnccn1)B(O)O [Bortezomib] (partner 0.002 µM): the relative viability was found to be 0.438.

In the case of `CCCCCCCCCCCC1=C(O)C(=O)C=C(O)C1=O` [Embelin] + CS(=O)(=O)CCNCc1ccc(-c2ccc3ncnc(Nc4ccc(OCc5cccc(F)c5)c(Cl)c4)c3c2)o1 [Lapatinib] (partner 2 µM), the relative viability was 0.616.

As to `CCCCCCCCCCCC1=C(O)C(=O)C=C(O)C1=O` [Embelin] + C[C@@H](Oc1cc(-c2cnn(C3CCNCC3)c2)cnc1N)c1c(Cl)ccc(F)c1Cl [Crizotinib] (partner 1 µM), the relative viability is 0.321.

For a further assay, the system named is SK-MES-1. The assay is described as above. Conditions: first compound 0.08 µM. In a few lines:
as §1
On to `CCCCCCCCCCCC1=C(O)C(=O)C=C(O)C1=O` [Embelin] + O=C(CCCCCCC(=O)Nc1ccccc1)NO [Vorinostat] (partner 1 µM), for which the relative viability was determined as 1.1.

In the case of `CCCCCCCCCCCC1=C(O)C(=O)C=C(O)C1=O` [Embelin] + C[C@]1(O)C[C@@H](c2nc(-c3ccc4ccc(-c5ccccc5)nc4c3)c3c(N)nccn32)C1 [Linsitinib] (partner 1 µM), the relative viability turned out to be 1.17.
